{"source": "paper PMC8069289", "about": "(Molecules, 2021)", "key": {"Drosophila melanogaster [1]": {"system": "Drosophila melanogaster", "assay": "Antitoxicity assay, combined treatment with 0.15 M H2O2", "details": "0.15 M hydrogen peroxide alone, positive toxicant control concurrent to each test substance", "procedure": "Toxicity was assayed according to our standard protocols. CRB and SFRB were tested at five concentrations: 1, 4, 8.12, 32.5 and 130 mg/mL and 0.16, 0.625, 1.25, 5 and 20 mg/mL, respectively. […] Tested groups consisted of larvae fed with Drosophila Instant Medium (Formula 4–24, Carolina Biological Supply, Burlington, NC, USA) supplemented with the assessed compounds concentrations. Emerging adults of all groups were counted and toxicity was determined as the percentage of hatched individuals in each treatment compared with the negative control."}, "Drosophila melanogaster [2]": {"system": "Drosophila melanogaster", "assay": "Genotoxicity, wing spot test (SMART)", "details": "H2O2 0.15 M, positive control", "procedure": "The wing spot test was performed to evaluate genotoxicity assays following the standard procedure [14]. Briefly, trans-heterozygous larvae for mwh and flr^3 genes were obtained by crossing four day-old virgin flr^3 females with mwh males in a 2:1 ratio. Four days after fertilization, females were allowed to lay eggs in fresh yeast medium (25 g yeast and 4 mL sterile distilled water) for 8 h in order to obtain synchronized larvae. After 72 h, larvae were collected, washed with distilled water, and clustered in groups of 100 individuals. […] Adult flies were collected and stored in 70% ethanol until the wings were removed and mounted on slides using Faure’s solution. Mutant spots were assessed in both dorsal and ventral surfaces of the wings in a bright light microscope at 400× magnification. The frequencies of each type of mutant clone per wing (single, large or twin spot) were compared with the concurrent negative control [43]. All inconclusive and positive results (p > 0.05) were analysed with the nonparametric U-test of Mann, Whitney and Wilcoxon (α = β = 0.05)."}}, "note": "Values joined by “and” are separate entries in the source; they are usually repeats but may differ in a detail not shown here. Identical values can stand only once.", "data": [{"molecule": "OO", "note": "[H2O2, hydrogen peroxide, reference compound]", "values": [{"measurement": "Survival (%)", "setting": "Drosophila melanogaster [1]", "value": "60% and 38.46% and 58%"}, {"measurement": "Twin Spots m = 5", "setting": "Drosophila melanogaster [2]", "value": 0, "unit": "clones per wing"}, {"measurement": "Large Simple Spots (>2 Cells) m = 5", "setting": "Drosophila melanogaster [2]; No. of spots in parentheses", "value": "0.05 (2) clones per wing"}, {"measurement": "Small Single Spots (1–2 Cells) m = 2", "setting": "Drosophila melanogaster [2]; No. of spots in parentheses", "value": "0.375 (15) clones per wing"}, {"measurement": "Total Spots m = 2", "setting": "Drosophila melanogaster [2]; No. of spots in parentheses", "value": "0.425 (17) clones per wing"}]}]}
